Source: paper PMC12032302, “A20 attenuates oxidized self-DNA-mediated inflammation in acute kidney injury” (Signal Transduction and Targeted Therapy, 2025)
Entries after “also recorded” stand apart in the source; their conditions may differ. Residues, ends and D or L forms follow the SMILES beside them.

How the values were obtained:
HA-Tri-MUT-NEK7 = target: T1, HA-Tri-MUT-NEK7 (Mus musculus, UniProt Q9ES74, K130A/K140A/L132R); assay: BLI analysis of NEK7 and P-II, HA-Tri-MUT-NEK7; format: binding; conditions: K130, L132 and K140 mutated, Fig. 7d
T1 construct: 3×HA; made in house; host or cells: HEK293T
From the text: For BLI analysis, 3×HA-WT-NEK7 or 3×HA-Tri-MUT-NEK7 plasmids were transfected into HEK293T cells. Post-transfection, proteins were purified with HA antibody via coimmunoprecipitation and then eluted with 0.1 M glycine, Ph2.0. Then, samples were neutralized with 3 M NaOH and subjected to BLI analysis.
Mouse HA-NEK7, FlAG-A20, and NLRP3 cDNA were amplified by employing standard PCR techniques from a mouse cDNA library. Subsequently, diverse cDNAs were inserted into mammalian expression vectors pcDNA3.1(+), pRK5, or pCMV6 with 3×Flag or 3×HA tags. For transient transfections, Lipofectamine 3000 was utilized according to the manufacturer’s instructions.
(§1) Bio-Layer Interferometry (BLI) analysis
(§2) The peptide (Bootech BioScience &Technology) was immobilized separately on Octet® AR2G Biosensors (Sartorius, Lot#2308017311) at a concentration of 400 μg/ml for 500 s. Association and dissociation curves were obtained through the addition of a dilution series of recombinant human NEK7 protein (SinoBiological, CAT#11534-H20B) (39.0625 to 1250 nM) for 120 s followed by dissociation for 120 s. Interference patterns for association or dissociation were measured in real-time to generate a response profile on the Octet® System Octet 96 Red instrument (Sartorius). A 1:1 binding model was used to evaluate the Kinetic parameter.

[1] = system: recombinant human NEK7 protein; assay: BLI analysis of recombinant human NEK7 and P-II; conditions: Supplementary Fig. 4e, peptide immobilized on AR2G biosensors 400 μg/ml, recombinant human NEK7 39.0625 to 1250 nM, 1:1 binding model
Protocol: as §1, §2

BMDMs = assay: ox-dsDNA-induced pyroptosis in BMDMs (GSDMD cleavage, IL-1β, IL-18, LDH release); format: cell-based, mouse; conditions: ox-dsDNA90, 12 h pretreated P-II (0, 5, 10, 20 μM), n = 3, Supplementary Fig. 4f-i
Protocol: Primary bone marrow-derived macrophages (BMDMs) were isolated from 6- to 8-week-old C57BL/6J male mice. The mice were sacrificed and soaked in 75% alcohol for 1–2 min. The femurs and tibias were removed and immersed in PBS containing 500 U/mL penicillin and […] streptomycin for 3 min. The marrow cavities were repeatedly rinsed with DMEM using a sterile 1 mL syringe. The cell suspension was collected and centrifuged at 300 × g for 10 min, and the supernatant was discarded. The cell pellet was resuspended in 5 mL red cell lysis buffer (Bio Sharp, Cat#BL503A) on ice for 5 min, followed by centrifugation, and the supernatant was removed. The cells were then resuspended in DMEM complete culture medium supplemented with 10% FBS and 30% L929 cell-conditioned medium as an induction factor.[51] Half of the medium was changed every other day for 5–7 days. The suspended cells were removed, and the adherent BMDMs were digested with trypsin and plated on a six-well plate at a density of 1 × 10^6 cells/well. […]
To measure the levels of CXCL10, IFN-β, IL-1β, and IL-18, mouse serum or cell culture medium was collected and measured by ELISA (NeoBioscience, China) according to the manufacturer’s instructions.
To measure the release of LDH, cell culture medium was collected and measured by CytoTox96@Non-Radio cytotoxicity Assay (Promega, REF#G1781) according to the manufacturer’s instructions.

AKI mice = assay: survival of AKI mice; format: in vivo, mouse; conditions: Cis-treated mice; A20-derived peptide 15 mg/kg i.p., pretreated; n = 10 per group
Protocol: Aristolochic acid I sodium salt was dissolved in PBS to 1 mg/mL and injected intraperitoneally at a dose of 10 mg/kg (body weight) every 24 h for 3 days; cisplatin was dissolved in PBS to 1.5 mg/mL for one-time intraperitoneal 25 mg/kg injection; LPS (Sigma, Cat#L2630) was dissolved in PBS to 2.5 mg/mL for one-time intraperitoneal 25 mg/kg injection; deoxyribonuclease I (DNase I, Sigma, Cat#SLBV1446) was dissolved in PBS to 1 mg/mL and injected intraperitoneally at a dose of 10 mg/kg at 4 h before cisplatin or AA I injection and every 24 h after injection. Disulfiram (MedChemExpress, CAS:97-77-8) was diluted in corn oil to 12.5 mg/mL and injected 50 mg/kg intraperitoneally every 24 h after cisplatin or AA I administration. Cu(II) (Sigma, Cat#344419) was dissolved in PBS to 30 µg/mL and administered intraperitoneally 6 h before disulfiram at a dose of 0.15 mg/kg; TNF-α (Peprotech, Cat#315-01 A) was dissolved in PBS to 10 µg/mL and injected at 100 µg/kg once through the caudal vein 24 h before cisplatin injection. Metformin (Sigma, Cat#D150959) was dissolved in PBS to 5 mg/mL and injected intraperitoneally at a dose of 50 mg/kg 24 h before cisplatin or AA I injection and every 24 h after injection. MCC950 (MedChem Express, CAS:256373-96-3) was dissolved in PBS to 5 mg/mL and injected intraperitoneally at a dose of 50 mg/kg 12 h before cisplatin or AA I injection and every 12 h after injection; berberine (APExBIO, Cat#N1368) was dissolved in PBS to 5 mg/mL and 5 mg/kg injected intraperitoneally at 36, 24 and 12 h before cisplatin; A20-derived-peptide was dissolved in ddH2O to 3 mg/mL and injected intraperitoneally at a dose of 15 mg/kg 1 h before cisplatin. To supervise the effects of various treatments on survival time and rate, the mice were observed, and survival curves were generated. To investigate the specific mechanisms, whole blood was retrieved from the orbit, serum was separated through centrifugation on the 4th day, and the mice were then sacrificed by cervical dislocation. Mice were randomly assigned in experiments, while there was no blinding during the animal experiments.

T1 sequence (Q9ES74 whole entry K130A/L132R/K140A): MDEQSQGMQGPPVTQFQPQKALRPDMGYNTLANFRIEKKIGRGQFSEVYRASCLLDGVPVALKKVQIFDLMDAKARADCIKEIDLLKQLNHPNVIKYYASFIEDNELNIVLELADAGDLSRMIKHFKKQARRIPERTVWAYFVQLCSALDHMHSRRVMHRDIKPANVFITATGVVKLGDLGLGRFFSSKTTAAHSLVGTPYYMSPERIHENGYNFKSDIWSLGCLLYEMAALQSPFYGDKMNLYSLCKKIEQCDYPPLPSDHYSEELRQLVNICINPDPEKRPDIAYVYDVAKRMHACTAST

With CSCC[C@H](NC(=O)[C@H](Cc1ccc(O)cc1)NC(=O)[C@H](CCC(N)=O)NC(=O)[C@H](CS)NC(=O)[C@H](C)NC(=O)[C@H](C)NC(=O)[C@H](Cc1c[nH]cn1)NC(=O)[C@H](CCSC)NC(=O)[C@H](CC(C)C)NC(=O)[C@H](CS)NC(=O)[C@H](CC(N)=O)NC(=O)CNC(=O)[C@H](CC(=O)O)NC(=O)CNC(=O)[C@H](CC(N)=O)NC(=O)[C@@H](NC(=O)[C@H](CCCCN)NC(=O)[C@H](CC(C)C)NC(=O)[C@H](C)NC(=O)[C@@H](NC(=O)[C@H](CC(C)C)NC(=O)[C@@H](N)CCCCN)C(C)C)[C@@H](C)O)C(=O)N[C@@H](Cc1c[nH]c2ccccc12)C(=O)NCC(=O)N[C@H](C(=O)N[C@@H](CCC(N)=O)C(=O)N[C@@H](CC(=O)O)C(=O)N[C@H](C(=O)N[C@@H](CC(=O)O)C(=O)O)[C@@H](C)O)C(C)C [P-II] (H-KLVALKTNGDGNCLMHAACQYMWGVQDTD-OH; N-terminus and C-terminus assumed) the “affinity of NEK7 for P-II, effect of simultaneous mutation of three residues” value (HA-Tri-MUT-NEK7) was “abrogated the affinity of NEK7 for P-II”, the “affinity for NEK7 (in words)” value [1] was “high affinity to NEK7 protein” and the “inhibition of ox-DNA-induced pyroptosis” value (BMDMs) was “significantly alleviates ox-dsDNA-induced pyroptosis; also recorded: inhibiting ox-self-DNA-induced pyroptosis”. For the same molecule, the survival (AKI mice) was “improved the survival of mice”.
